16 molecules from patent US12497408B2, “Tetracyclic compounds and methods for the treatment of Zika virus infection” (priority 2021, dated 2025) can be followed below.

The subject of this assay is ZIKV. Briefly: ZIKV reporter virus-based antiviral screening on Huh7 cells. The format is cell-based, Zika virus. To be noted: Zika virus, Huh-7, 48 h, Huh7 cells infected with recombinant luciferase reporter ZIKV (MOI about 0.1), luciferase signal. The gist of the method:
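Huh7 cells in 2% FBS assay medium infected at MOI about 0.1 with Renilla or Nano luciferase ZIKV premixed with nine-point compound dilutions, 48 hrs at 37° C. Luciferase signal normalized to DMSO controls as 100%; viability optionally by CellTiter-Glo with Rlu virus.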
In general terms: A reporter such as luciferase makes a cellular process visible.
Regarding `CC[C@H](C)[C@H](NC(=O)OC)C(=O)N1CC(F)(F)C[C@H]1c1nc(Cl)c(-c2cc3c4c(c2)OCc2cc(-c5[nH]c([C@@H]6CC(F)(F)CN6C(=O)[C@@H](NC(=O)OC)[C@@H](C)CC)nc5Cl)cc(c2-4)OC3)[nH]1` [Compound 57, dimethyl ((2S,2′S,3S,3′S)-((5S,5′S)-((5,10-dihydrochromeno[5,4,3-cde]chromene-2,7-diyl)bis(4-chloro-1H-imidazole-5,2-diyl))bis(3,3-difluoropyrrolidine-5,1-diyl))bis(3-methyl-1-oxopentane-1,2-diyl))dicarbamate], the EC50 is 4.6 nM.
In the case of `COC(=O)N[C@H](C(=O)N1CC(F)(F)C[C@H]1c1nc(Cl)c(-c2cc3c4c(c2)OCc2cc(-c5[nH]c([C@@H]6CC(F)(F)CN6C(=O)[C@@H](NC(=O)OC)C(C)(C)C(F)(F)F)nc5Cl)cc(c2-4)OC3)[nH]1)C(C)(C)C(F)(F)F` [Compound 58, dimethyl ((2S,2′S)-((5S,5′S)-((5,10-dihydrochromeno[5,4,3-cde]chromene-2,7-diyl)bis(4-chloro-1H-imidazole-5,2-diyl))bis(3,3-difluoropyrrolidine-5,1-diyl))bis(4,4,4-trifluoro-3,3-dimethyl-1-oxobutane-1,2-diyl))dicarbamate] it was 11 nM; in that of `COC(=O)N[C@H](C(=O)N1CC2(CC2)C[C@H]1c1nc(Cl)c(-c2cc3c4c(c2)OCc2cc(-c5[nH]c([C@@H]6CC7(CC7)CN6C(=O)[C@@H](NC(=O)OC)C(C)C)nc5Cl)cc(c2-4)OC3)[nH]1)C(C)C` [Compound 59, dimethyl ((2S,2′S)-((6S,6′S)-((5,10-dihydrochromeno[5,4,3-cde]chromene-2,7-diyl)bis(4-chloro-1H-imidazole-5,2-diyl))bis(5-azaspiro[2.4]heptane-6,5-diyl))bis(3-methyl-1-oxobutane-1,2-diyl))dicarbamate], 1.5 nM; in that of `CC[C@H](C)[C@H](NC(=O)OC)C(=O)N1CC2(CC2)C[C@H]1c1nc(Cl)c(-c2cc3c4c(c2)OCc2cc(-c5[nH]c([C@@H]6CC7(CC7)CN6C(=O)[C@@H](NC(=O)OC)[C@@H](C)CC)nc5Cl)cc(c2-4)OC3)[nH]1` [Compound 60, dimethyl ((2S,2′S,3S,3′S)-((6S,6′S)-((5,10-dihydrochromeno[5,4,3-cde]chromene-2,7-diyl)bis(4-chloro-1H-imidazole-5,2-diyl))bis(5-azaspiro[2.4]heptane-6,5-diyl))bis(3-methyl-1-oxopentane-1,2-diyl))dicarbamate], 1.7 nM.
With `COC(=O)N[C@H](C(=O)N1CC2(CC2)C[C@H]1c1nc(Cl)c(-c2cc3c4c(c2)OCc2cc(-c5[nH]c([C@@H]6CC7(CC7)CN6C(=O)[C@@H](NC(=O)OC)C(C)(C)C(F)(F)F)nc5Cl)cc(c2-4)OC3)[nH]1)C(C)(C)C(F)(F)F` [Compound 61, dimethyl ((2S,2′S)-((6S,6′S)-((5,10-dihydrochromeno[5,4,3-cde]chromene-2,7-diyl)bis(4-chloro-1H-imidazole-5,2-diyl))bis(5-azaspiro[2.4]heptane-6,5-diyl))bis(4,4,4-trifluoro-3,3-dimethyl-1-oxobutane-1,2-diyl))dicarbamate], the half-maximal effective concentration (EC50) turned out to be 2.8 nM.
In the case of `COC(=O)N[C@H](C(=O)N1[C@H](C)CC[C@H]1c1nc(Cl)c(-c2cc3c4c(c2)OCc2cc(-c5[nH]c([C@@H]6CC[C@@H](C)N6C(=O)[C@@H](NC(=O)OC)C(C)C)nc5Cl)cc(c2-4)OC3)[nH]1)C(C)C` [Compound 62, dimethyl ((2S,2′S)-((2R,2′R,5S,5′S)-((5,10-dihydrochromeno[5,4,3-cde]chromene-2,7-diyl)bis(4-chloro-1H-imidazole-5,2-diyl))bis(2-methylpyrrolidine-5,1-diyl))bis(3-methyl-1-oxobutane-1,2-diyl))dicarbamate], the EC50 amounted to 17.7 nM.
Take `CC[C@H](C)[C@H](NC(=O)OC)C(=O)N1[C@H](C)CC[C@H]1c1nc(Cl)c(-c2cc3c4c(c2)OCc2cc(-c5[nH]c([C@@H]6CC[C@@H](C)N6C(=O)[C@@H](NC(=O)OC)[C@@H](C)CC)nc5Cl)cc(c2-4)OC3)[nH]1` [Compound 63, dimethyl ((2S,2′S,3S,3′S)-((2R,2′R,5S,5′S)-((5,10-dihydrochromeno[5,4,3-cde]chromene-2,7-diyl)bis(4-chloro-1H-imidazole-5,2-diyl))bis(2-methylpyrrolidine-5,1-diyl))bis(3-methyl-1-oxopentane-1,2-diyl))dicarbamate]: the 50% effective concentration (EC50) worked out at 16.4 nM.
For the molecule `COC(=O)N[C@H](C(=O)N1CCC[C@@]1(C)c1nc(Cl)c(-c2cc3c4c(c2)OCc2cc(-c5[nH]c([C@]6(C)CCCN6C(=O)[C@@H](NC(=O)OC)C(C)C)nc5Cl)cc(c2-4)OC3)[nH]1)C(C)C` [Compound 64, dimethyl ((2S,2′S)-((2S,2′S)-((5,10-dihydrochromeno[5,4,3-cde]chromene-2,7-diyl)bis(4-chloro-1H-imidazole-5,2-diyl))bis(2-methylpyrrolidine-2,1-diyl))bis(3-methyl-1-oxobutane-1,2-diyl))dicarbamate], the EC50 was 234 nM.
For the molecule `COC(=O)N[C@H](C(=O)N1[C@H](C)CC[C@H]1c1nc(Cl)c(-c2cc3c4c(c2)OCc2cc(-c5[nH]c([C@@H]6CC[C@@H](C)N6C(=O)[C@@H](NC(=O)OC)C(C)(C)C(F)(F)F)nc5Cl)cc(c2-4)OC3)[nH]1)C(C)(C)C(F)(F)F` [Compound 65, dimethyl ((2S,2′S)-((2R,2′R,5S,5′S)-((5,10-dihydrochromeno[5,4,3-cde]chromene-2,7-diyl)bis(4-chloro-1H-imidazole-5,2-diyl))bis(2-methylpyrrolidine-5,1-diyl))bis(4,4,4-trifluoro-3,3-dimethyl-1-oxobutane-1,2-diyl))dicarbamate], the EC50 turned out to be 71.7 nM.
For `CC[C@H](C)[C@H](NC(=O)OC)C(=O)N1CCC[C@@]1(C)c1nc(Cl)c(-c2cc3c4c(c2)OCc2cc(-c5[nH]c([C@]6(C)CCCN6C(=O)[C@@H](NC(=O)OC)[C@@H](C)CC)nc5Cl)cc(c2-4)OC3)[nH]1` [Compound 66, dimethyl ((2S,2′S,3S,3′S)-((2S,2′S)-((5,10-dihydrochromeno[5,4,3-cde]chromene-2,7-diyl)bis(4-chloro-1H-imidazole-5,2-diyl))bis(2-methylpyrrolidine-2,1-diyl))bis(3-methyl-1-oxopentane-1,2-diyl))dicarbamate], the EC50 came to 44 nM.
Under `CC[C@H](C)[C@H](NC(=O)OC)C(=O)N1C[C@@H](C)C[C@H]1c1ncc(-c2cc3c4c(c2)OCc2cc(-c5[nH]c([C@@H]6C[C@H](C)CN6C(=O)[C@@H](NC(=O)OC)[C@@H](C)CC)nc5Cl)cc(c2-4)OC3)[nH]1` [Compound 67, methyl ((2S,3S)-1-((2S,4S)-2-(4-chloro-5-(7-(2-((2S,4S)-1-((methoxycarbonyl)-L-isoleucyl)-4-methylpyrrolidin-2-yl)-1H-imidazol-5-yl)-5,10-dihydrochromeno[5,4,3-cde]chromen-2-yl)-1H-imidazol-2-yl)-4-methylpyrrolidin-1-yl)-3-methyl-1-oxopentan-2-yl)carbamate] stands 23.9 nM; under `CC[C@H](C)[C@H](NC(=O)OC)C(=O)N1C[C@@H](C)C[C@H]1c1nc(Cl)c(-c2cc3c4c(c2)OCc2cc(-c5[nH]c([C@@H]6C[C@H](C)CN6C(=O)[C@@H](NC(=O)OC)[C@@H](C)CC)nc5Cl)cc(c2-4)OC3)[nH]1` [Compound 68, dimethyl ((2S,2′S,3S,3′S)-((3S,3′S,5S,5′S)-((5,10-dihydrochromeno[5,4,3-cde]chromene-2,7-diyl)bis(4-chloro-1H-imidazole-5,2-diyl))bis(3-methylpyrrolidine-5,1-diyl))bis(3-methyl-1-oxopentane-1,2-diyl))dicarbamate], 9.9 nM; under `COC(=O)N[C@H](C(=O)N1C[C@@H](C)C[C@H]1c1nc(Cl)c(-c2cc3c4c(c2)OCc2cc(-c5[nH]c([C@@H]6C[C@H](C)CN6C(=O)[C@@H](NC(=O)OC)C(C)C)nc5Br)cc(c2-4)OC3)[nH]1)C(C)C` [Compound 69, methyl ((S)-1-((2S,4S)-2-(4-bromo-5-(7-(4-chloro-2-((2S,4S)-1-((methoxycarbonyl)-L-valyl)-4-methylpyrrolidin-2-yl)-1H-imidazol-5-yl)-5,10-dihydrochromeno[5,4,3-cde]chromen-2-yl)-1H-imidazol-2-yl)-4-methylpyrrolidin-1-yl)-3-methyl-1-oxobutan-2-yl)carbamate], 11.6 nM.
For `CC[C@H](C)[C@H](NC(=O)OC)C(=O)N1C[C@@H](C)C[C@H]1c1ncc(-c2cc3c4c(c2)OCc2cc(-c5[nH]c([C@@H]6C[C@H](C)CN6C(=O)[C@@H](NC(=O)OC)[C@@H](C)CC)nc5C(C)C)cc(c2-4)OC3)[nH]1` [Compound 70, methyl ((2S,3S)-1-((2S,4S)-2-(4-isopropyl-5-(7-(2-((2S,4S)-1-((methoxycarbonyl)-L-isoleucyl)-4-methylpyrrolidin-2-yl)-1H-imidazol-5-yl)-5,10-dihydrochromeno[5,4,3-cde]chromen-2-yl)-1H-imidazol-2-yl)-4-methylpyrrolidin-1-yl)-3-methyl-1-oxopentan-2-yl)carbamate], the EC50 is 17.4 nM.
`C=C(C)c1nc([C@@H]2C[C@H](C)CN2C(=O)[C@@H](NC(=O)OC)C(C)C)[nH]c1-c1cc2c3c(c1)OCc1cc(-c4[nH]c([C@@H]5C[C@H](C)CN5C(=O)[C@@H](NC(=O)OC)C(C)C)nc4C(=C)C)cc(c1-3)OC2` [Compound 71, dimethyl ((2S,2′S)-((3S,3′S,5S,5′S)-((5,10-dihydrochromeno[5,4,3-cde]chromene-2,7-diyl)bis(4-(prop-1-en-2-yl)-1H-imidazole-5,2-diyl))bis(3-methylpyrrolidine-5,1-diyl))bis(3-methyl-1-oxobutane-1,2-diyl))dicarbamate]: the concentration for a half-maximal effect (EC50) stood at 36.4 nM.
In the case of `COC(=O)N[C@H](C(=O)N1C[C@@H](C)C[C@H]1c1nc(C(C)C)c(-c2cc3c4c(c2)OCc2cc(-c5[nH]c([C@@H]6C[C@H](C)CN6C(=O)[C@@H](NC(=O)OC)C(C)C)nc5C(C)C)cc(c2-4)OC3)[nH]1)C(C)C` [Compound 72, dimethyl ((2S,2′S)-((3S,3′S,5S,5′S)-((5,10-dihydrochromeno[5,4,3-cde]chromene-2,7-diyl)bis(4-isopropyl-1H-imidazole-5,2-diyl))bis(3-methylpyrrolidine-5,1-diyl))bis(3-methyl-1-oxobutane-1,2-diyl))dicarbamate] it was 11.8 nM.

One may read the EC50 as the concentration at which the effect is half-maximal.
